Measurements from patent publication US6737383B1, “Herbicidal oxadiazolidines” (priority 1999, dated 2004).

Tests used:
purple nutsedge = assay: Test B pre/postemergence purple nutsedge; format: in vivo, Cyperus rotundus
Summary of the method: (§1)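 Response is a visual 0-to-10 score relative to untreated plants, where 0 means no effect and 10 means complete control, taken twelve to sixteen days after application. Treatments went onto soil at planting and onto foliage of 1- to 4-leaf plants, using a surfactant-containing non-phytotoxic solvent.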

rape = assay: Test B pre/postemergence rape; format: in vivo, Brassica napus
Summary of the method: as §1

wheat = assay: Test B pre/postemergence wheat; format: in vivo, Triticum aestivum
Summary of the method: as §1

blackgrass = assay: Test B pre/postemergence blackgrass; format: in vivo, Alopecurus myosuroides
Summary of the method: as §1

soybean = assay: Test B pre/postemergence soybean; format: in vivo, Glycine max
Summary of the method: as §1

cocklebur = assay: Test B pre/postemergence cocklebur; format: in vivo, Xanthium strumarium
Summary of the method: as §1

corn = assay: Test B pre/postemergence corn; format: in vivo, Zea mays
Summary of the method: as §1

sugar beet = assay: Test B pre/postemergence sugar beet; format: in vivo, Beta vulgaris
Summary of the method: as §1

crabgrass = assay: Test B pre/postemergence crabgrass; format: in vivo, Digitaria sanguinalis
Summary of the method: as §1

giant foxtail = assay: Test B pre/postemergence giant foxtail; format: in vivo, Setaria faberii
Summary of the method: as §1

pigweed = assay: Test B pre/postemergence pigweed; format: in vivo, Amaranthus retroflexus
Summary of the method: as §1

velvetleaf = assay: Test B pre/postemergence velvetleaf; format: in vivo, Abutilon theophrasti
Summary of the method: as §1

morningglory = assay: Test B pre/postemergence morningglory; format: in vivo, Ipomoea hederacea
Summary of the method: as §1

[1] = Postemergence, Rate 125 g/ha, scale of 0 to 10 where 0 is no effect and 10 is complete control
[2] = Preemergence, Rate 62 g/ha, scale of 0 to 10 where 0 is no effect and 10 is complete control
[3] = Preemergence, Rate 125 g/ha, 0 is no effect, 10 is complete control
[4] = Preemergence, Rate 250 g/ha, scale 0 to 10, 0 is no effect, 10 is complete control
[5] = Preemergence, Rate 500 g/ha, scale 0 to 10 (0 no effect, 10 complete control)
[6] = Rate 62 g/ha, Postemergence, scale of 0 to 10 where 0 is no effect and 10 is complete control
[7] = Rate 250 g/ha, Postemergence, scale 0 to 10, 0 is no effect, 10 is complete control
[8] = Rate 500 g/ha, Postemergence, scale 0 to 10

Compound: CC(C)N(C(=O)n1oc(=O)n([C@@H](C)c2ccccc2)c1=O)c1ccc(F)cc1 [Compound 167]
- Nutsedge plant response rating (purple nutsedge; [1]): 0
- Nutsedge plant response rating (purple nutsedge; [2]): 0
- Nutsedge plant response rating (0 to 10 scale) (purple nutsedge; [3]): 0
- Nutsedge plant response rating (purple nutsedge; [4]): 0
- Nutsedge plant response rating (purple nutsedge; [5]): 0
- Nutsedge plant response rating (purple nutsedge; [6]): 0
- Plant response rating, Nutsedge (purple nutsedge; [7]): 0
- Nutsedge plant response rating (purple nutsedge; [8]): 0
- Rape plant response rating (rape; [1]): 0
- Rape plant response rating (rape; [2]): 0
- Rape plant response rating (0 to 10 scale) (rape; [3]): 0
- Rape plant response rating (rape; [4]): 0
- Rape plant response rating (rape; [5]): 5
- Rape plant response rating (rape; [6]): 0
- Plant response rating, Rape (rape; [7]): 0
- Rape plant response rating (rape; [8]): 0
- Wheat plant response rating (wheat; [2]): 0
- Wheat plant response rating (0 to 10 scale) (wheat; [3]): 0
- Wheat plant response rating (wheat; [4]): 0
- Wheat plant response rating (wheat; [5]): 0
- Plant response rating, Wheat (wheat; [7]): 0
- Wheat plant response rating (wheat; [8]): 0
- Blackgrass plant response rating (blackgrass; [1]): 0
- Blackgrass plant response rating (blackgrass; [2]): 0
- Blackgrass plant response rating (0 to 10 scale) (blackgrass; [3]): 0
- Blackgrass plant response rating (blackgrass; [4]): 3
- Blackgrass plant response rating (blackgrass; [5]): 3
- Blackgrass plant response rating (blackgrass; [6]): 0
- Plant response rating, Blackgrass (blackgrass; [7]): 5
- Blackgrass plant response rating (blackgrass; [8]): 5
- Soybean plant response rating (soybean; [1]): 3
- Soybean plant response rating (soybean; [2]): 0
- Soybean plant response rating (0 to 10 scale) (soybean; [3]): 0
- Soybean plant response rating (soybean; [4]): 0
- Soybean plant response rating (soybean; [5]): 0
- Soybean plant response rating (soybean; [6]): 2
- Plant response rating, Soybean (soybean; [7]): 3
- Soybean plant response rating (soybean; [8]): 5
- Cocklebur plant response rating (cocklebur; [1]): 0
- Cocklebur plant response rating (cocklebur; [2]): 0
- Cocklebur plant response rating (0 to 10 scale) (cocklebur; [3]): 0
- Cocklebur plant response rating (cocklebur; [4]): 0
- Cocklebur plant response rating (cocklebur; [5]): 0
- Cocklebur plant response rating (cocklebur; [6]): 0
- Plant response rating, Cocklebur (cocklebur; [7]): 0
- Cocklebur plant response rating (cocklebur; [8]): 2
- Corn plant response rating (corn; [1]): 0
- Corn plant response rating (corn; [2]): 0
- Corn plant response rating (0 to 10 scale) (corn; [3]): 0
- Corn plant response rating (corn; [4]): 0
- Corn plant response rating (corn; [5]): 0
- Corn plant response rating (corn; [6]): 0
- Plant response rating, Corn (corn; [7]): 0
- Corn plant response rating (corn; [8]): 0
- Sugarbeets plant response rating (sugar beet; [1]): 0
- Sugarbeets plant response rating (sugar beet; [2]): 0
- Sugarbeets plant response rating (0 to 10 scale) (sugar beet; [3]): 2
- Sugarbeets plant response rating (sugar beet; [4]): 5
- Sugarbeets plant response rating (sugar beet; [5]): 5
- Sugarbeets plant response rating (sugar beet; [6]): 0
- Plant response rating, Sugarbeets (sugar beet; [7]): 0
- Sugarbeets plant response rating (sugar beet; [8]): 0
- Crabgrass plant response rating (crabgrass; [1]): 3
- Crabgrass plant response rating (crabgrass; [2]): 7
- Crabgrass plant response rating (0 to 10 scale) (crabgrass; [3]): 8
- Crabgrass plant response rating (crabgrass; [4]): 10
- Crabgrass plant response rating (crabgrass; [5]): 10
- Crabgrass plant response rating (crabgrass; [6]): 0
- Plant response rating, Crabgrass (crabgrass; [7]): 9
- Crabgrass plant response rating (crabgrass; [8]): 9
- Giant foxtail plant response rating (giant foxtail; [1]): 0
- Giant foxtail plant response rating (giant foxtail; [2]): 8
- Giant foxtail plant response rating (0 to 10 scale) (giant foxtail; [3]): 9
- Giant foxtail plant response rating (giant foxtail; [4]): 10
- Giant foxtail plant response rating (giant foxtail; [5]): 10
- Giant foxtail plant response rating (giant foxtail; [6]): 0
- Plant response rating, Giant foxtail (giant foxtail; [7]): 0
- Giant foxtail plant response rating (giant foxtail; [8]): 0
- Redroot pigweed plant response rating (pigweed; [1]): 0
- Redroot pigweed plant response rating (pigweed; [2]): 0
- Redroot pigweed plant response rating (0 to 10 scale) (pigweed; [3]): 6
- Redroot pigweed plant response rating (pigweed; [4]): 8
- Redroot pigweed plant response rating (pigweed; [5]): 8
- Redroot pigweed plant response rating (pigweed; [6]): 0
- Plant response rating, Redroot pigweed (pigweed; [7]): 3
- Redroot pigweed plant response rating (pigweed; [8]): 7
- Velvetleaf plant response rating (velvetleaf; [2]): 0
- Velvetleaf plant response rating (0 to 10 scale) (velvetleaf; [3]): 0
- Velvetleaf plant response rating (velvetleaf; [4]): 0
- Velvetleaf plant response rating (velvetleaf; [5]): 3
- Plant response rating, Velvetleaf (velvetleaf; [7]): 0
- Velvetleaf plant response rating (velvetleaf; [8]): 2
- Morningglory plant response rating (morningglory; [1]): 5
- Morningglory plant response rating (morningglory; [2]): 0
- Morningglory plant response rating (0 to 10 scale) (morningglory; [3]): 0
- Morningglory plant response rating (morningglory; [4]): 0
- Morningglory plant response rating (morningglory; [5]): 0
- Morningglory plant response rating (morningglory; [6]): 2
- Plant response rating, Morningglory (morningglory; [7]): 5
- Morningglory plant response rating (morningglory; [8]): 8
